pEC50, pIC50: −log10 of the molar value. The source made the active and inactive calls. The rule behind the calls is not given here.
Key:
[1] = target: T1, ATP-dependent Clp protease proteolytic subunit, mitochondrial (Homo sapiens, UniProt Q16740); assay: Agonist activity at human CLpP by measuring alpha-casein hydrolysis using alpha-casein as substrate preincubated for 10 mins followed by substrate addition and measured after 120 mins by Coomassie brilliant blue staining based SDS-PAGE assay
MOLM-13 [2] = assay: Antiproliferative activity against human MOLM-13 cells assessed as inhibition of cell growth at 20 uM by CCK-8 assay relative to control; assay type: functional
[3] = target: T1, ATP-dependent Clp protease proteolytic subunit, mitochondrial; assay: Agonist activity at human CLpP by measuring alpha-casein hydrolysis using alpha-casein as substrate by FITC staining based assay
[4] = target: T1, ATP-dependent Clp protease proteolytic subunit, mitochondrial; assay: Binding affinity to human CLpP assessed as change in melting temperature by DSF assay; settings: filed as agonist
[5] = target: T1, ATP-dependent Clp protease proteolytic subunit, mitochondrial; assay: Binding affinity to CLpP in human MOLM-13 cells assessed as thermal stabilization at 10 uM at 52.9 to 78 degreeC by cellular thermal shift assay; assay type: cell-based; settings: filed as agonist
[6] = target: T1, ATP-dependent Clp protease proteolytic subunit, mitochondrial; assay: Binding affinity to CLpP in human HEL cells assessed as thermal stabilization at 10 uM at 52.9 to 78 degreeC by cellular thermal shift assay; assay type: cell-based; settings: filed as agonist
[7] = target: T1, ATP-dependent Clp protease proteolytic subunit, mitochondrial; assay: Binding affinity to CLpP in human MV4-11 cells assessed as thermal stabilization at 10 uM at 52.9 to 78 degreeC by cellular thermal shift assay; assay type: cell-based; settings: filed as agonist
HEL [8] = assay: Antiproliferative activity against human HEL cells assessed as inhibition of cell growth incubated for 72 hrs by CCK-8 assay; assay type: functional, cell-based
MOLM-13 [9] = assay: Antiproliferative activity against human MOLM-13 cells assessed as inhibition of cell growth incubated for 72 hrs by CCK-8 assay; assay type: functional, cell-based; settings: MOLM-13, 72 h
MV4-11 [10] = assay: Antiproliferative activity against human MV4-11 cells assessed as inhibition of cell growth incubated for 72 hrs by CCK-8 assay; assay type: functional, cell-based; settings: MV4-11, 72 h
NB-4 [11] = assay: Antiproliferative activity against human NB4 cells assessed as inhibition of cell growth incubated for 72 hrs by CCK-8 assay; assay type: functional, cell-based; settings: NB-4, 72 h
NB-4 [12] = assay: Inhibition of colony formation in human NB4 cells incubated for 14 days; assay type: functional, cell-based; settings: time 14.0 day
NB-4 [13] = assay: Antileukemic activity against human NB4 cells assessed as downregulation of NDUFA12 protein expression incubated for 24 hrs by Western blotting analysis; assay type: functional, cell-based
NB-4 [14] = assay: Antileukemic activity against human NB4 cells assessed as downregulation of NDUFB8 protein expression incubated for 24 hrs by Western blotting analysis; assay type: functional, cell-based
NB-4 [15] = assay: Antileukemic activity against human NB4 cells assessed as downregulation of NDUFV2 protein expression incubated for 24 hrs by Western blotting analysis; assay type: functional, cell-based
NB-4 [16] = assay: Antileukemic activity against human NB4 cells assessed as downregulation of SDHA protein expression incubated for 24 hrs by Western blotting analysis; assay type: functional, cell-based
NB-4 [17] = assay: Antileukemic activity against human NB4 cells assessed as downregulation of SDHB protein expression incubated for 24 hrs by Western blotting analysis; assay type: functional, cell-based
NB-4 [18] = assay: Antileukemic activity against human NB4 cells assessed as downregulation of UQCRC2 protein expression incubated for 24 hrs by Western blotting analysis; assay type: functional, cell-based
Cell membrane = assay: Induction of mitochondrial membrane potential loss in human MOLM-13 cells at 10 uM incubated upto 48 hrs by TMRE staining based assay
MOLM-13 [19] = assay: Antileukemic activity against human MOLM-13 cells assessed as reduction in cellular ATP content at 10 uM incubated upto 48 hrs; assay type: functional, cell-based
MOLM-13 [20] = assay: Antileukemic activity against human MOLM-13 cells assessed as reduction in mitochondrial DNA content at 10 uM incubated for 24 hrs; assay type: functional, cell-based
MV4-11 [21] = assay: Antileukemic activity against human MV4-11 cells assessed as reduction in mitochondrial DNA content at 10 uM incubated for 24 hrs; assay type: functional, cell-based
HEL [22] = assay: Antileukemic activity against human HEL cells assessed as reduction in mitochondrial DNA content at 10 uM incubated for 24 hrs; assay type: functional, cell-based
NB-4 [23] = assay: Antileukemic activity against human NB4 cells assessed as reduction in mitochondrial DNA content at 10 uM incubated for 24 hrs; assay type: functional, cell-based
MOLM-13 [24] = assay: Inhibition of mitochondrial respiration in human MOLM-13 cells assessed as reduction in oxygen consumption rate at 5 uM incubated for 24 hrs; assay type: functional, cell-based
MOLM-13 [25] = assay: Inhibition of mitochondrial respiration in human MOLM-13 cells assessed as reduction in oxygen consumption rate at 10 uM incubated for 24 hrs; assay type: functional, cell-based
MV4-11 [26] = assay: Inhibition of mitochondrial respiration in human MV4-11 cells assessed as reduction in oxygen consumption rate at 5 uM incubated for 24 hrs; assay type: functional, cell-based
MV4-11 [27] = assay: Inhibition of mitochondrial respiration in human MV4-11 cells assessed as reduction in oxygen consumption rate at 10 uM incubated for 24 hrs; assay type: functional, cell-based
NB-4 [28] = assay: Inhibition of mitochondrial respiration in human NB4 cells assessed as reduction in oxygen consumption rate at 5 uM incubated for 24 hrs; assay type: functional, cell-based
NB-4 [29] = assay: Inhibition of mitochondrial respiration in human NB4 cells assessed as reduction in oxygen consumption rate at 10 uM incubated for 24 hrs; assay type: functional, cell-based
MOLM-13 [30] = assay: Induction of apoptosis in human MOLM-13 cells incubated for 24 to 72 hrs; assay type: functional, cell-based; settings: time 24-72 hrs
MV4-11 [31] = assay: Induction of apoptosis in human MV4-11 cells incubated for 24 to 72 hrs; assay type: functional, cell-based; settings: time 24-72 hrs
NB-4 [32] = assay: Induction of apoptosis in human NB4 cells incubated for 24 to 72 hrs; assay type: functional, cell-based; settings: time 24-72 hrs
MV4-11 [33] = assay: Antiproliferative activity against human MV4-11 cells cultured as 3D cells assessed as inhibition of cell growth; assay type: functional, cell-based
MV4-11 [34] = assay: Antileukemic activity against human MV4-11 cells xenografted in BALB/c mouse assessed as reduction in tumor volume at 30 mg/kg,ip administrated for 30 days; assay type: functional, organism-based; settings: time 30.0 day
MV4-11 [35] = assay: Antileukemic activity against human MV4-11 cells xenografted in BALB/c mouse assessed as reduction in tumor volume at 60 mg/kg,ip administrated for 30 days; assay type: functional, organism-based; settings: time 30.0 day
MV4-11 [36] = assay: Antileukemic activity against human MV4-11 cells xenografted in BALB/c mouse assessed as reduction in tumor weight at 30 mg/kg,ip administrated for 30 days; assay type: functional, organism-based; settings: time 30.0 day
MV4-11 [37] = assay: Antileukemic activity against human MV4-11 cells xenografted in BALB/c mouse assessed as reduction in tumor weight at 60 mg/kg,ip administrated for 30 days; assay type: functional, organism-based; settings: time 30.0 day
NB-4 [38] = assay: Antileukemic activity against human NB4 cells xenografted in BALB/c mouse assessed as reduction in tumor volume at 30 mg/kg,ip administrated for 30 days; assay type: functional, organism-based; settings: time 30.0 day
NB-4 [39] = assay: Antileukemic activity against human NB4 cells xenografted in BALB/c mouse assessed as reduction in tumor volume at 60 mg/kg,ip administrated for 30 days; assay type: functional, organism-based; settings: time 30.0 day
NB-4 [40] = assay: Antileukemic activity against human NB4 cells xenografted in BALB/c mouse assessed as reduction in tumor weight at 30 mg/kg,ip administrated for 30 days; assay type: functional, organism-based; settings: time 30.0 day
NB-4 [41] = assay: Antileukemic activity against human NB4 cells xenografted in BALB/c mouse assessed as reduction in tumor weight at 60 mg/kg,ip administrated for 30 days; assay type: functional, organism-based; settings: time 30.0 day
[42] = Toxicity in BALB/c mouse xenografted with human MV4-11 cells assessed as change in body weight at 30 mg/kg,ip administrated for 30 days; assay type: organism-based; settings: in vivo, 720 h, time 30 day
[43] = Toxicity in BALB/c mouse xenografted with human MV4-11 cells assessed as change in body weight at 60 mg/kg,ip administrated for 30 days; assay type: organism-based; settings: in vivo, 720 h, time 30 day
[44] = Toxicity in BALB/c mouse xenografted with human NB4 cells assessed as change in body weight at 30 mg/kg,ip administrated for 30 days; assay type: organism-based, NB-4; settings: in vivo, 720 h, time 30 day
[45] = Toxicity in BALB/c mouse xenografted with human NB4 cells assessed as change in body weight at 60 mg/kg,ip administrated for 30 days; assay type: organism-based, NB-4; settings: in vivo, 720 h, time 30 day

T1 sequence (Q16740 whole entry): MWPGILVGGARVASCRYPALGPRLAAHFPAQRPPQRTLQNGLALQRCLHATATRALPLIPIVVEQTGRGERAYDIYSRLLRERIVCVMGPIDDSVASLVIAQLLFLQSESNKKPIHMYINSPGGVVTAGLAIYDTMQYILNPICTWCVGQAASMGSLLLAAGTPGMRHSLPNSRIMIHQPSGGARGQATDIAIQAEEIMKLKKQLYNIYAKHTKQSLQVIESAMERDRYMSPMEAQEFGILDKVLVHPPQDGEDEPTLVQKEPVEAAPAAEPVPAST

CC[C@H](C)[C@H]1C(=O)N(Cc2ccc(OC)c3ccccc23)C[C@@H]2N(C(=O)NCc3ccc(Br)cc3)CCC(=O)N12
pEC50 [1]: 5.66
inhibition at 20 µM (MOLM-13 [2]): 99.6%
pEC50 [3]: 6.27
ΔTm [4]: 21.8 °C
Activity [5]: Active
Activity [6]: Active
Activity [7]: Active
pIC50 (HEL [8]): 5.48
pIC50 (MOLM-13 [9]): 5.54
pIC50 (MV4-11 [10]): 5.24
pIC50 (NB-4 [11]): 5.31
inhibition (NB-4 [12]): Dose-Dependent Effect
Activity (NB-4 [13]): Dose-Dependent Effect
Activity (NB-4 [14]): Dose-Dependent Effect
Activity (NB-4 [15]): Dose-Dependent Effect
Activity (NB-4 [16]): Dose-Dependent Effect
Activity (NB-4 [17]): Dose-Dependent Effect
Activity (NB-4 [18]): Dose-Dependent Effect
Activity (Cell membrane): Active
Activity (MOLM-13 [19]): Active
Activity (MOLM-13 [20]): Active
Activity (MV4-11 [21]): Active
Activity (HEL [22]): Active
Activity (NB-4 [23]): Active
inhibition (MOLM-13 [24]): Active
inhibition (MOLM-13 [25]): Active
inhibition (MV4-11 [26]): Active
inhibition (MV4-11 [27]): Active
inhibition (NB-4 [28]): Active
inhibition (NB-4 [29]): Active
Activity (MOLM-13 [30]): Active
Activity (MV4-11 [31]): Active
Activity (NB-4 [32]): Active
Activity (MV4-11 [33]): Dose-Dependent Effect
Activity (MV4-11 [34]): Active
Activity (MV4-11 [35]): Active
Activity (MV4-11 [36]): Active
Activity (MV4-11 [37]): Active
Activity (NB-4 [38]): Active
Activity (NB-4 [39]): Active
Activity (NB-4 [40]): Active
Activity (NB-4 [41]): Active
Activity [42]: Non-Toxic
Activity [43]: Non-Toxic
Activity [44]: Non-Toxic
Activity [45]: Non-Toxic

From ChEMBL document CHEMBL5634070, “Assessment of the structure-activity relationship and antileukemic activity of diacylpyramide compounds as human ClpP agonists” (Eur J Med Chem, 2023)
